Experimental findings from ChEMBL document CHEMBL3832761, “MMV Pathogen Box Bioactivity Data” (2017) are described below.

In experiment [1] the test system is Plasmodium falciparum. In words: Antimalarial activity: Asexual Blood Stage Plasmodium falciparum 3D7 IC50 (uM). The format is functional, organism-based.
For experiment [2], the system named is Plasmodium falciparum. The experiment is described as follows: Antimalarial activity: Asexual Blood Stage Plasmodium falciparum Dd2 IC50 (uM). The format is functional, organism-based.
Experiment [3] has as its system Plasmodium falciparum. In words: Antimalarial activity: Gametocytes Plasmodium falciparum NF54 Gametocytes Stage V IC50 (uM). It counts as functional, organism-based.
For experiment [4], the system named is HepG2. The experiment is described as follows: HepG2 inhibition at 10 uM (%) Cytotoxicity. The format is functional. The following applies: Homo sapiens.
In experiment [5] the test system is Mycobacterium tuberculosis. The experiment is described as follows: AntiMycobacterium tuberculosis activity 2-week Alamar Blue 7H9/ADC/Tw MIC (uM). The format is functional. The following applies: 336 h.
Experiment [6] has as its system HepG2. In words: HepG2 galactose CC50 (uM) Cytotoxicity. The following applies: Homo sapiens, HepG2. It counts as functional.
Experiment [7] has as its system Mycobacterium tuberculosis. The experiment is described as follows: AntiMycobacterium tuberculosis activity 1-week 7H9/cholesterol/BSA/Tx MIC (uM). It counts as functional. Particulars: 168 h.
In experiment [8] the test system is Mycobacterium tuberculosis. The experiment is described as follows: (§1) AntiMycobacterium tuberculosis activity day 10 in 7H9/2.5mM butyrate/pH6/0.1mM nitrite MIC90 (uM). The format is functional. Particulars: 240 h.
The subject of experiment [9] is Mycobacterium tuberculosis. Described as §1. The format is functional. Particulars: 240 h. This is another data set of the same source.
For experiment [10], the system named is Mycobacterium tuberculosis. The experiment is described as follows: AntiMycobacterium tuberculosis activity day 21 MIC99 in 7H9/2.5mM butyrate/pH6/0.1mM nitrite MIC99 (uM). The format is functional. Particulars: 504 h.
The subject of experiment [11] is Mycobacterium tuberculosis. In words: AntiMycobacterium tuberculosis activity day 21 in 7H9/2.5mM butyrate/pH6/0.1mM nitrite MIC90 (uM). The format is functional. Particulars: 504 h.
The subject of experiment [12] is Mycobacterium tuberculosis. In words: AntiMycobacterium tuberculosis activity 1-week 7H9/ADC/Tw MIC (uM). It counts as functional. The following applies: 168 h.
Experiment [13] has as its system Mycobacterium tuberculosis. The experiment is described as follows: AntiMycobacterium tuberculosis activity 1-week GAST/Fe MIC (uM). It counts as functional. Particulars: 168 h.
In experiment [14] the test system is Mycobacterium tuberculosis. The experiment is described as follows: AntiMycobacterium tuberculosis activity 2-week 7H9/ADC/Tw MIC (uM). Particulars: 336 h. The format is functional.
The subject of experiment [15] is HepG2. In words: HepG2 glucose CC50 (uM) Cytotoxicity. The format is functional. Particulars: Homo sapiens, HepG2.
Experiment [16] relates to Mycobacterium tuberculosis. In words: AntiMycobacterium tuberculosis activity 2-week Alamar Blue 7H9/cholesterol/BSA/Tx MIC (uM). The following applies: 336 h. The format is functional.
Experiment [17] deals with Mycobacterium tuberculosis. The experiment is described as follows: AntiMycobacterium tuberculosis activity 2-week 7H9/glucose/BSA/Tx MIC (uM). The format is functional. Particulars: 336 h.
The test system of experiment [18] is Mycobacterium tuberculosis. In words: AntiMycobacterium tuberculosis activity 2-week 7H9/DPPC/cholesterol/BSA/Tx MIC (uM). The format is functional. Particulars: 336 h.
Experiment [19] relates to Mycobacterium tuberculosis. In words: AntiMycobacterium tuberculosis activity 1-week 7H9/DPPC/cholesterol/BSA/Tx MIC (uM). The format is functional. Particulars: 168 h.
Experiment [20] deals with Mycobacterium tuberculosis. The experiment is described as follows: AntiMycobacterium tuberculosis activity 2-week GAST/Fe MIC (uM). It counts as functional. The following applies: 336 h.
The test system of experiment [21] is Mycobacterium tuberculosis. The experiment is described as follows: AntiMycobacterium tuberculosis activity 1-week 7H9/glucose/BSA/Tx MIC (uM). The format is functional. Particulars: 168 h.

Converted amounts (≈) assume the structure as drawn.

In general, IC50 refers to the concentration that inhibits the measured activity by half. The term inhibition denotes the percentage by which the read-out fell short of the control. The low end stands for little suppression, the high end for strong suppression. Turning to `O=C(Nc1nc(-c2ccccn2)cs1)C1CC1c1ccccc1F` (stereo not given), the IC50 was > 2000 nM in the experiment with Plasmodium falciparum [1], > 2000 nM with Plasmodium falciparum [2] and 520 nM in the experiment on Plasmodium falciparum [3]. The inhibition at 10 µM in the experiment on HepG2 [4] is 25%.

In the case of `CCc1ccc(C(NCc2nc(N)nc(N(C)C)n2)C(C)C)cc1` (stereo not given), the values for the IC50 with Plasmodium falciparum [1], in the experiment with Plasmodium falciparum [2] and in the experiment with Plasmodium falciparum [3] were > 2000 nM, > 2000 nM and 80 nM, respectively.

With `CCCn1c(NC(=O)c2ccc3ccccc3n2)nc2ccccc21`, the results for the concentration for half-maximal inhibition (IC50) in the experiment with Plasmodium falciparum [1], in the experiment with Plasmodium falciparum [2] and with Plasmodium falciparum [3] were > 2000 nM, > 2000 nM and 560 nM, respectively. Further, testing at 10 µM in the experiment on HepG2 [4] gave an inhibition of 24%.

In the case of `CNC(=O)CNc1nc(-c2ccccn2)nc2scc(-c3ccccc3)c12`, the 50% inhibitory concentration (IC50) in the experiment with Plasmodium falciparum [1] was > 2000 nM; with Plasmodium falciparum [2] it was > 2000 nM; in the experiment on Plasmodium falciparum [3], 840 nM. In the experiment with HepG2 [4], this molecule came in with an inhibition at 10 µM of 4%.

As to `CCNC(=O)C(C)Nc1nc(-c2cccnc2)nc2sc(C)c(C)c12` (stereo not given), the half-maximal inhibitory concentration (IC50) in the experiment on Plasmodium falciparum [1] was > 2000 nM; with Plasmodium falciparum [2] it was > 2000 nM; in the experiment on Plasmodium falciparum [3], 610 nM. Also, in the experiment on HepG2 [4], the inhibition at 10 µM came to 0%.

By MIC is commonly meant the smallest concentration in the dilution series that meets the test's criterion for growth inhibition. In general, CC50 refers to the concentration giving 50% cytotoxicity. Read a high CC50 as better tolerance by the cells. The MIC90 is the lowest concentration that inhibits either 90% of growth or 90% of the strains tested, depending on the study. Low values mean greater potency, high ones weaker potency. Regarding `c1ccc(-c2nc(NC3CCCCC3)cc(C3CC3)n2)nc1`, the MIC in experiment [5] is 37 µM (≈ 10.9 µg/mL); in [7] it was 19 µM (≈ 5.59 µg/mL); in experiment [10], > 50 µM; in [12], 37 µM (≈ 10.9 µg/mL); in experiment [13] it was 25 µM (≈ 7.36 µg/mL); in [14], 50 µM (≈ 14.7 µg/mL). In addition, the MIC came to 9.4 µM (≈ 2.77 µg/mL) in [16]; 50 µM (≈ 14.7 µg/mL) in [17]; 50 µM (≈ 14.7 µg/mL) in [18]; 25 µM (≈ 7.36 µg/mL) in experiment [19]; 25 µM (≈ 7.36 µg/mL) in experiment [20]; 37 µM (≈ 10.9 µg/mL) in [21]. In addition, the cytotoxic concentration (CC50) in the experiment with HepG2 [6] and in the experiment on HepG2 [15] was > 50000 nM each time. For the same molecule, the MIC90 in experiment [8] was found to be 25 µM (≈ 7.36 µg/mL); in experiment [9], 50 µM (≈ 14.7 µg/mL); in experiment [11] it was 50 µM (≈ 14.7 µg/mL).

Regarding `COc1ccc2nccc(NC(=O)C3CCN(CCc4ccc(Cl)cc4)CC3)c2n1`, the minimum inhibitory concentration (MIC) was 0.39 µM (≈ 0.166 µg/mL) in [5]; 0.39 µM (≈ 0.166 µg/mL) in experiment [7]; > 50 µM in experiment [10]; 0.39 µM (≈ 0.166 µg/mL) in experiment [12]; 0.3 µM (≈ 0.127 µg/mL) in experiment [13]; 0.39 µM (≈ 0.166 µg/mL) in experiment [14]. Moreover, the minimal inhibitory concentration (MIC) worked out at 0.6 µM (≈ 0.255 µg/mL) in [16]; 0.78 µM (≈ 0.331 µg/mL) in [17]; 0.78 µM (≈ 0.331 µg/mL) in experiment [18]; 0.39 µM (≈ 0.166 µg/mL) in experiment [19]; 0.39 µM (≈ 0.166 µg/mL) in [20]; 0.39 µM (≈ 0.166 µg/mL) in [21]. Further, the CC50 in the experiment with HepG2 [6] and in the experiment on HepG2 [15] was > 50000 nM throughout. Also, the figures for the MIC90 in experiment [8], in experiment [9] and in [11] were 0.39 µM (≈ 0.166 µg/mL), > 50 µM and 0.78 µM (≈ 0.331 µg/mL), respectively.

Consider `O=C(c1ccco1)N(CCCn1ccnc1)c1nc2c(Cl)cccc2s1`, for which the MIC in [5] was 25 µM (≈ 9.67 µg/mL); in [7] it was 12.5 µM (≈ 4.84 µg/mL); in experiment [10], > 50 µM; in experiment [12], ≥ 50 µM; in [13], 25 µM (≈ 9.67 µg/mL); in [14], 50 µM (≈ 19.3 µg/mL). Moreover, the minimal inhibitory concentration (MIC) in experiment [16] was 12.5 µM (≈ 4.84 µg/mL); in experiment [17] it was 37 µM (≈ 14.3 µg/mL); in experiment [18], 37 µM (≈ 14.3 µg/mL); in [19], 37 µM (≈ 14.3 µg/mL); in experiment [20], 37 µM (≈ 14.3 µg/mL); in experiment [21], 50 µM (≈ 19.3 µg/mL). In addition, the half-maximal cytotoxic concentration (CC50) in the experiment with HepG2 [6] and in the experiment with HepG2 [15] was > 50000 nM in each case. In addition, the MIC90 is 25 µM (≈ 9.67 µg/mL) in [8], > 50 µM in experiment [9] and 25 µM (≈ 9.67 µg/mL) in experiment [11].
